Measured values from patent US20260374818A1, “CATIONIC PEPTIDES WITH BROAD SPECTRUM ACTIVITY” (priority 2023, published 2026).
pIC50: −log10 of the molar value. Where a SMILES comes first, the peptide text is derived from it. [ ]: non-standard residue; d: D form.

Assays:
[1] = system: 3-day-old oral plaque (multispecies) biofilms; assay: Oral plaque biofilm model, long-term (1-3 days) exposure, dead cell volume; assay type: cell-based
[2] = system: human bronchiolar epithelial cells (HBEs); assay: Cytotoxicity (LDH release), human bronchiolar epithelial cells
[3] = system: A. baumanii biofilms on Ker-CT epidermal skin; assay: Skin organoid biofilm model, AB103-D loaded Medvance foam dressing, A. baumanii; assay type: cell-based, Acinetobacter baumannii
[4] = system: P. aeruginosa biofilms on N/TERT epithelial skin; assay: Skin organoid biofilm model, peptide-loaded collagen dressings, P. aeruginosa; assay type: cell-based, Pseudomonas aeruginosa; conditions: compared to DJK-5 and ciprofloxacin
[5] = system: P. aeruginosa LESB58 biofilms on Ker-CT epidermal skin; assay: Skin organoid biofilm model, AB103-D loaded Medvance foam dressing, P. aeruginosa LESB58; assay type: cell-based, Pseudomonas aeruginosa
[6] = system: P. aeruginosa PAO1 planktonic cells; assay: Planktonic inhibition by AB103-D single substitution variants, P. aeruginosa; assay type: cell-based; conditions: Pseudomonas; read-out: IC50 of AB103-D alone, planktonic
Source text: A series of single amino acid substitution variants of the AB103-D peptide were generated on cellulose arrays using SPOT-synthesis technology [Hilpert, K., Winkler, D. F., & Hancock, R. E. W. (2007). Peptide arrays on cellulose support: SPOT synthesis, a time and cost efficient method for synthesis of large numbers of peptides in a parallel and addressable fashion. Nature Protocols, 2(6), 1333-1349; Frank, R. (2002). The SPOT-synthesis technique. Synthetic peptide arrays on membrane supports-principles and applications. J Immunol Methods, 267(1), 13-26] to test for enhanced Gram-negative activity against P. aeruginosa and determine which residues contribute to the antibiofilm effects of this peptide. 96 AB103-D variants were generated by replacing each residue in the parent peptide with one of D-Arg, D-Lys, D-Glu, Gly, D-Ala, D-Ile, D-Leu, D-Val and D-Trp. The biofilm inhibitory activity of all 96 AB103-D variants was subsequently assessed against MRSA USA300 LAC or P. aeruginosa PAO1 in a microtitre plate assay [Haney, E. F., Trimble, M. J., & Hancock, R. E. W. (2021). Microtiter plate assays to assess antibiofilm activity against bacteria. Nature Protocols, 16(5), 2615-2632]. […].

[7] = system: peripheral blood mononuclear cells (PBMCs); assay: Cytotoxicity (LDH release), PBMCs
[8] = system: S. aureus USA300 (MRSA) wound biofilms; assay: Porcine dermal biofilm wound infection model, MRSA; assay type: in vivo, porcine; methicillin resistant Staphylococcus aureus; conditions: compared with ciprofloxacin, mupirocin
Source text: (§1) . Peptide (PEP1=DJK5; PEP3=AB103-D) solutions were used to hydrate Puracol® resorbable dressings made of collagen either alone or in the presence of antibiotic (ABX1=ciprofloxacin). Briefly, partial thickness wounds (10 mm×7 mm×1 mm deep) were created on the backs of the animals then infected with log-phase cultures of bacteria and allowed biofilms to form for 24-hrs. Dressings were applied to infected wounds of either MRSA S. aureus USA300 (FIG. 6A) or P. aeruginosa 27312 (FIG. 6B) as either a single treatment (day 1) or twice treated (Day 1 and 4) and all wounds were excised on day 7 for CFU renumeration. The amount of peptide applied in all treatments was 10 mg while 1 mg of ciprofloxacin was used in and treatment containing antibiotic. Mupirocin and silver sulfadiazine (SSD) were used as positive controls.
(§2) In vivo porcine dermal biofilm model: Peptide loaded dressings were evaluated using a porcine dermal biofilm infection model as described previously [Davis, S. C., et al. (2018). The wound-healing effects of a next-generation anti-biofilm silver Hydrofiber wound dressing on deep partial-thickness wounds using a porcine model. International Wound Journal, 15(5), 834-839]. Briefly, partial thickness wounds (10 mm×7 mm×1 mm deep) were created on the backs of the animals then infected with log-phase cultures of bacteria and allowed biofilms to form for 24-hrs. […]

[9] = system: S. epidermidis biofilms on Ker-CT epidermal skin; assay: Skin organoid biofilm model, AB103-D loaded Medvance foam dressing, S. epidermidis; assay type: cell-based, Staphylococcus epidermidis
[10] = system: oral multispecies biofilm; assay: Oral multispecies biofilm development on HA disks; assay type: cell-based; conditions: 10 μg/ml, 3 days
N/TERT keratinocytes = assay: Cytotoxicity (LDH release), N/TERT keratinocytes
[11] = system: MRSA USA 300 LAC biofilms; assay: Checkerboard biofilm synergy of AB103-D with antimicrobials, MRSA; assay type: cell-based, methicillin resistant Staphylococcus aureus
[12] = system: 3-day-old oral plaque biofilms; assay: Oral plaque biofilm model, brief (1 minute) exposure, dead cell volume; assay type: cell-based; conditions: 10 μg/ml, 1 minute once or three times, compared to DJK5
[13] = system: MRSA biofilms on Ker-CT epidermal skin; assay: Skin organoid biofilm model, AB103-D loaded Medvance foam dressing, MRSA; assay type: cell-based, methicillin resistant Staphylococcus aureus
[14] = system: MRSA biofilms on N/TERT epithelial skin; assay: Skin organoid biofilm model, peptide-loaded collagen dressings, MRSA; assay type: cell-based, methicillin resistant Staphylococcus aureus; conditions: compared to DJK-5 and ciprofloxacin
[15] = system: PAO1 biofilms on human skin organoid; assay: Skin organoid biofilm infection model, peptide solution, PAO1; assay type: cell-based, Pseudomonas aeruginosa; conditions: peptide solution 4 hrs (FIG. 3B)
[16] = system: P. aeruginosa 27312 wound biofilms; assay: Porcine dermal biofilm wound infection model, P. aeruginosa; assay type: in vivo, porcine; Pseudomonas aeruginosa; conditions: compared with ciprofloxacin, silver sulfadiazine
Source text: as §1, §2

[17] = system: MRSA biofilms on human skin organoid; assay: Skin organoid biofilm infection model, peptide solution, MRSA; assay type: cell-based, methicillin resistant Staphylococcus aureus; conditions: peptide solution 4 hrs (FIG. 3A)
[18] = system: P. aeruginosa PAO1 biofilms; assay: Checkerboard biofilm synergy of AB103-D with antimicrobials, PAO1; assay type: cell-based, Pseudomonas aeruginosa

Structure (SMILES): CC[C@@H](C)[C@@H](NC(=O)[C@@H](C)NC(=O)[C@@H](CCCNC(=N)N)NC(=O)[C@@H](Cc1c[nH]c2ccccc12)NC(=O)[C@@H](CCC(N)=O)NC(=O)[C@H](NC(=O)[C@@H](CCCNC(=N)N)NC(=O)[C@H](NC(=O)[C@H](NC(=O)[C@@H](CCCNC(=N)N)NC(=O)[C@H](NC(=O)[C@H](N)CCCNC(=N)N)C(C)C)C(C)C)[C@H](C)CC)C(C)C)C(N)=O [AB103-D, rvrvirvqwrai-NH2] (H-[dR][dV][dR][dV][dI][dR][dV][dQ][dW][dR][dA][dI]-NH2)
- Proportion of dead biofilm cells ([1]; 10 μg/ml, daily for 3 days, compared to DJK5 (FIG. 16A)): superior to DJK5 at killing bacteria cells
- Proportion of dead biofilm cells ([1]; 1 or 5 μg/ml, daily for 3 days, compared to DJK5 (FIG. 16A)): killed more of the biofilm cells
- Proportion of dead biofilm cells ([1]; all three concentrations, one day (FIG. 16C)): killed more biofilm cells than DJK5
- Proportion of dead biofilm cells ([1]; all three concentrations, two days (FIG. 16B)): killed more biofilm cells than DJK5
- Broad spectrum antibiofilm activity, more active than DJK5 (ESKAPEE Pathogens): 2-4 fold
- Cytotoxicity (LDH) [2]: low toxicity
- Bacterial burden on organoid skin, loaded bandage [3]: effectively reduce the bacterial burden
- Antibiofilm activity from collagen dressing [4]: clearly superior activity to both DJK-5 and ciprofloxacin
- Bacterial burden on organoid skin, loaded bandage [5]: effectively reduce the bacterial burden
- pIC50 [6]: 4.80
- Cytotoxicity (LDH) [7]: low toxicity
- Efficacy in porcine skin infection [8]: worked as well or better than ciprofloxacin, mupirocin (for MRSA)
- Bacterial burden on organoid skin, loaded bandage [9]: effectively reduce the bacterial burden
- Total biovolume [10]: reduced total biovolume
- Percentage of dead bacterial cell volume ([10]; compared to DJK5): significantly higher percentage of dead bacterial cell volume compared to DJK5 treatment
- Cytotoxicity (LDH) (N/TERT keratinocytes): low toxicity
- Synergy with several other antimicrobials ([11]; MRSA USA 300 biofilms): proved synergistic with several other antimicrobials
- MBIC of AB103-D alone ([11]; MRSA, 10% TSB + 0.1% glucose, at least 70% reduction of biofilm biomass): 1 µg/mL
- Killing of 3-day-old oral plaque biofilms [12]: significantly more effective than DJK5
- Bacterial burden on organoid skin, loaded bandage [13]: effectively reduce the bacterial burden
- Antibiofilm activity from collagen dressing [14]: clearly superior activity to both DJK-5 and ciprofloxacin
- Antibiofilm activity on skin organoid [15]: excellent antibiofilm activity
- Efficacy in porcine skin infection [16]: worked as well or better than ciprofloxacin, mupirocin (for MRSA) or silver sulfadiazine (for P. aeruginosa)
- Antibiofilm activity on skin organoid [17]: excellent antibiofilm activity
- MBIC of AB103-D alone ([18]; PAO1, BM2 minimal media, at least 70% reduction of biofilm biomass): 2 µg/mL
- Synergy with several other antimicrobials ([18]; PAO1 biofilms): proved synergistic with several other antimicrobials
